Key:
HflX = HflX (Staphylococcus aureus, UniProt Q2FYY9); test: DRaCALA binding of 32P-labeled nucleotides to 6×His-tagged HflX; details: mean ± SEM; for Bmax, HflX: Bmax values indicate the fraction bound
Experimental: The RA-GTPases RsgA, Era, RbgA, and HflX can bind to the guanosine nucleotides GTP, GDP, ppGpp, and pppGpp. Our previous work observed higher binding affinities for ppGpp over GTP, pointing toward a difference in binding between 5′ di- or triphosphate nucleotides ([27]). […] Furthermore, these previous experiments were performed using recombinant proteins fused to large MBP tags, which could impact binding affinity determination. To examine the nucleotide binding affinities of these RA-GTPases for GDP in comparison to ppGpp, pppGpp, and GTP, and in the absence of a large tag, we used a differential radial capillary action of ligand assay (DRaCALA) with recombinant RsgA, RbgA, Era, and HflX fused to a smaller 6× His tag (Fig. 1B; see also Fig. S2A to C in the supplemental material) ([36]). In each case, the affinities of 5′ diphosphate-containing GDP and ppGpp were similar in the low μM range and were 2- to 6-fold higher than the affinities of either GTP or pppGpp (Table 1).
Supplementary file : FIG S2 Examination of the binding of GDP, ppGpp, GTP, and pppGpp to RA-GTPases by DRaCALA. (A to C) Determination of binding affinities and Kd values for ^32P-labeled nucleotides to purified recombinant 6×His-tagged RsgA (A), Era (B), and HflX (C). Kd values were determined from the binding curves as previously described ([36]). (D to F) DRaCALA binding assay of recombinant RsgA (D), Era (E), and HflX (F) binding to ^32P-labeled GTP, ppGpp, and pppGpp in the presence or absence of 100 μM cold competitors (GTP, GDP, ppGpp, pppGpp, and ATP). All experiments were carried out in triplicate, with error bars representing standard deviations. Download FIG S2, TIF file, 0.9 MB.
The synthesis of (p)ppGpp and differential radial capillary action of ligand assay (DRaCALA) binding and competition assays were performed as described previously ([27]), using recombinant, 6×His-tagged protein at the concentrations specified in the figure legends.

[1] = target: Era association to the 30S ribosomal subunit (Staphylococcus aureus, UniProt Q2FGF6); test: In vitro ribosome association assay (sucrose gradient, α-His Western immunoblot), Era; format: binding; details: 40 μM nucleotide; compared to apo, GTP, or GMPPNP-bound states
Sequence of Era association to the 30S ribosomal subunit (Q2FGF6 whole entry): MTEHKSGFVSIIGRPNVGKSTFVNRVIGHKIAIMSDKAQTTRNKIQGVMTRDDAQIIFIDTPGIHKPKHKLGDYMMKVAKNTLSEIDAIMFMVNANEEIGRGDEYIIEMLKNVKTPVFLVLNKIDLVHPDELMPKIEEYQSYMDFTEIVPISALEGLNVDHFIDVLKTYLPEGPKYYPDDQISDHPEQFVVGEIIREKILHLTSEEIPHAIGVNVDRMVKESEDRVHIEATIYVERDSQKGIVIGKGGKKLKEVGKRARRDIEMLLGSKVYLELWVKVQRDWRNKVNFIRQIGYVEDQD
From the text: (§1) It is well characterized that rRNA transcription decreases during the stringent response ([39]). In addition, the GTPase activity of ribosome assembly cofactors is inhibited by (p)ppGpp, both of which contribute to a reduction in mature ribosomes within the cell ([27]). To examine mechanistically how (p)ppGpp-GTPase interactions affect the ability of RA-GTPases to associate with ribosomal subunits, we examined the association of each GTPase to either the 30S or 50S ribosomal subunit in the presence of GDP, GTP, ppGpp, and pppGpp, as well as GMPPNP, a nonhydrolyzable analogue of GTP. The production and isolation of immature subunits, which can comprise several different immature states, introduces a large degree of heterogeneity, and so here we, and others, use homogenous mature particles as a system to examine the binding event, rather than the role of GTPase activity in downstream maturation ([11], [12], [29], [40], [41]). His-tagged GTPases were preincubated with highly pure, salt-washed 70S S. aureus ribosomes in a low-magnesium buffer to encourage ribosomal subunit dissociation, and the amount of each GTPase associated with each of the subunits was quantified by Western immunoblotting with anti-His antibodies after sucrose gradient separation. […]
(§2) FIG 2 (p)ppGpp and GDP binding reduces RA-GTPase association to the ribosome. […] After subunit separation and precipitation, bound proteins were detected in the 30S fraction using HRP-conjugated α-His antibodies. […] Bound proteins were detected in the 50S fraction using HRP-conjugated α-His antibodies. […]
(§3) A 500 nM concentration of recombinant 6×His-tagged RA-GTPase was incubated at room temperature for 5 min with 200 nM S. aureus 70S ribosomes in dissociation buffer (20 mM Tris [pH 7.5], 120 mM NH4Cl, 1.5 mM MgCl2, 2 mM β-mercaptoethanol) in the apo form and in the presence of 40 μM GTP, GMPPNP, GDP, ppGpp, or pppGpp. […] Gradients were fractionated by upward displacement of 250-μl aliquots, which were analyzed for RNA content at an absorbance of 260 nm. […]

[2] = test system: HflX association to the 30S and 50S ribosomal subunits; test: In vitro ribosome association assay (sucrose gradient, α-His Western immunoblot), HflX; format: binding, Staphylococcus aureus; details: 40 μM nucleotide; compared to apo, GTP, or GMPPNP-bound states
From the text: as §1, §2, §3

Sequence of HflX (Q2FYY9 entry or part of it): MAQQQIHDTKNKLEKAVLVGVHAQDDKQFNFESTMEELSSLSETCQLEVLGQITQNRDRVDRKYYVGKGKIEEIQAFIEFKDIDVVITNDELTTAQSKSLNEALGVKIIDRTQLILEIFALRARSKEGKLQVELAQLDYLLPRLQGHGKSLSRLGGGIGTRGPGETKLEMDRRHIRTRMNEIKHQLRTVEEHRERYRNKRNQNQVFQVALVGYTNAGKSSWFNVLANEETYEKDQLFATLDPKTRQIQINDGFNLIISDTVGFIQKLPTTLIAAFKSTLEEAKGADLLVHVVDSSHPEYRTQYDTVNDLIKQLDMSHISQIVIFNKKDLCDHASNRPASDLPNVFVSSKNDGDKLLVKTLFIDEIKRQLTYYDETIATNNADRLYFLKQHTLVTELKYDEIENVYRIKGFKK

Row | Structure (SMILES) | Bmax, HflX (HflX) | reduction in ribosome binding of Era [1] [fold] | reduction in ribosome binding of HflX [2] [fold] | Kd (HflX; 32P-labeled nucleotide, 6×His-tagged protein, read-out: Kd, HflX) [µM]
1 | Nc1nc2c(ncn2[C@@H]2O[C@H](COP(=O)(O)OP(=O)(O)OP(=O)(O)O)[C@@H](OP(=O)(O)OP(=O)(O)O)[C@H]2O)c(=O)[nH]1 [pppGpp] | 0.5 ± 0.2 | 2 | 2 | 
2 | Nc1nc2c(ncn2[C@@H]2O[C@H](COP(=O)(O)OP(=O)(O)O)[C@@H](OP(=O)(O)OP(=O)(O)O)[C@H]2O)c(=O)[nH]1 [ppGpp] | 0.6 ± 0.0 | 2 | 2 | 3.4 ± 0.4

Reference: PMC8579695, “The Stringent Response Inhibits 70S Ribosome Formation in Staphylococcus aureus by Impeding GTPase-Ribosome Interactions” (mBio, 2021)
